Measurements reported in patent publication US20100184820A1, “COMBINATIONS COMPRISING STAUROSPORINES” (priority 2006, published 2010).
Where two headings read alike, the source gives them in different places.

Columns and labels:
Type in all cases: cell-based, human
HMC-1.1 cells [1] = experiment: induction of apoptosis (percentage of apoptotic cells on Wright-Giemsa-stained cytospin slides); settings: for EC50: Homo sapiens, incubated with drugs for 24 hours
Description: (§1) Scramble control represents a mixture of A (adenine), G (guanine), T (thymine), and C (cytosine) bases, the resulting preparation containing an equimolar mixture of oligonucleotides. […] For transfection, 800,000 cells are seeded in 75 cm^2 culture plates at 37° C. for 24 hours. Mcl-1-ASO and Mcl-1 siRNA are complexed with Lipofectin-Reagent (Invitrogen) in RPMI 1640 medium essentially as described. […] After exposure to ASO, cells are washed and cultured in RPMI 1640 medium with 10% FCS in the presence or absence of various concentrations of TK inhibitors for another 12 hours before being analyzed. siRNA-treated cells are kept in control medium for 12 hours (without TK inhibitors) before being examined for the percentage of apoptotic cells and Western blotting.
(§2) Thereafter, 1 μCi ^3H-thymidine is added to each well. Sixteen hours later, cells are harvested on filter membranes (Packard Bioscience, Meriden, Conn.) in a Filtermate 196 harvester (Packard Bioscience). Filters are then air-dried, and the bound radioactivity is measured in a β-counter (Top-Count NXT, Packard Bioscience). All experiments are performed in triplicates. Cell viability is determined by the trypan blue exclusion test. The percentage of apoptotic cells is determined on Wright-Giemsa-stained cytospin slides employing conventional cytomorphologic criteria.
(§3) METHOD: Effects of mcl-1 antisense oligonucleotides on Mcl-1 protein expression and cell viability in HMC-1.1 and HMC-1.2 cells are analyzed. […] Western Blot analysis of Mcl-1 expression is performed using an anti-Mcl-1 antibody. β-Actin served as loading control. Evaluation of non-viable (trypan blue-positive) cells is expressed as percentage of all nucleated cells. Numbers (%) of apoptotic cells. Results represent the mean±S.D. from 3 independent experiments.
(§4) METHOD: [001] Effects of mcl-1-siRNA are analyzed in neoplastic mast cells on expression of Mcl-1 protein and cell viability in HMC-1.1 cells and HMC-1.2 cells. Cells are left untransfected (Control) or are transfected with either an mcl-1-specific siRNA (mcl-1-siRNA; 200 nM) or a luciferase-specific (control)-siRNA (luc-siRNA; 200 nM) as described herein. Mcl-1 protein expression is determined by Western blotting using a polyclonal anti-Mcl -1 antibody. Equal loading is confirmed by probing for β-Actin. Cell viability is analyzed by recording the percentage (%) of apoptotic cells. Results represent the mean±S.D. from 3 independent experiments in each set of experiments.
(§5) Mcl-1 protein expression is determined by Western blotting using a polyclonal anti-Mcl-1 antibody. Equal loading is confirmed by probing for β-Actin. Cell viability is analyzed by recording the percentage (%) of apoptotic cells.

Mcl-1 protein [2] = experiment: Western blot analysis of Mcl-1 protein expression in HMC-1.2 cells; settings: for expression of the Mcl-1 protein after targeted drugs: HMC-1.2 exhibiting KIT D816V, PKC412 1-10 μM, 2CdA 10-100 ng/ml, nilotinib and imatinib over the dose range tested
Description: (§6) Western blot analysis is performed as described previously using lysates of HMC-1 cells and a polyclonal rabbit anti-human Mcl-1 antibody (Santa Cruz Biotechnology, Santa Cruz, Calif.). In brief, cells are lysed in phosphate buffered saline (PBS) containing 1% Triton-X-100 (Sigma, St. Louis, Mo.). Proteins are separated under reducing conditions by SDS-polyacrylamide gel electrophoresis and transferred to nitrocellulose membranes (Protran, Schleicher & Schuell, Dassel, Germany) in transfer buffer. Membranes are then exposed to anti-mouse/anti-rabbit IgG (BM Chemiluminescence Western blotting Kit, Roche). […] Chemiluminescence is detected by exposure to a Biomax MS film (Kodak).
as §3, §4, §5

Mcl-1 protein [3] = experiment: Western blot analysis of Mcl-1 protein expression in HMC-1.1 cells; settings: for expression of the Mcl-1 protein after targeted drugs: HMC-1.1 lacking KIT D816V, PKC412 0.3-10 μM, nilotinib 10-300 nM, imatinib 30-300 nM, 2CdA up to 1,000 ng/ml
Description: as §6, §3, §4, §5

HMC-1.2 cells [4] = experiment: induction of apoptosis (percentage of apoptotic cells on Wright-Giemsa-stained cytospin slides); settings: for EC50: Homo sapiens, incubated with drugs for 24 hours
Description: as §1, §2, §3, §4, §5

HMC-1.2 cells [5] = experiment: 3H-thymidine incorporation assay; settings: for IC50: Homo sapiens, read-out: 3H-thymidine uptake (IC50) HMC-1.2
Description: (§7) The human mast cell line HMC-1 generated from leukemic cells in a patient with MCL48 are obtained (Mayo Clinic, Rochester, Minn.). […] HMC-1 cells are re-thawed from an original stock every 4 to 8 weeks and passaged weekly. As control of ‘phenotypic stability’, HMC-1 cells are periodically checked for expression of KIT and the down-modulating effect of IL-4 (100 U/ml, 48 hours).
(§8) In a separate set of experiments, HMC-1 cells are transfected with mcl-1-specific ASO before being exposed to inhibitory drugs (see below). […] After exposure to drugs or/and ASO, cells are subjected to ^3H-thymidine uptake experiments, analysis of cell viability and apoptosis, or Western blotting.
as §2, with “Sixteen hours later, cells are harvested on filter membranes (Packard Bioscience, Meriden, Conn.) in a Filtermate 196 harvester (Packard Bioscience).” left out

HMC-1.1 cells [6] = experiment: 3H-thymidine incorporation assay; settings: for IC50: Homo sapiens, read-out: 3H-thymidine uptake (IC50) HMC-1.1; for cell growth / proliferation (in words): HMC-1.1
Description: as §7, §8
as §2, with “Sixteen hours later, cells are harvested on filter membranes (Packard Bioscience, Meriden, Conn.) in a Filtermate 196 harvester (Packard Bioscience).” left out

HMC-1.1 cells [7] = experiment: combination of mcl-1 ASO and targeted drugs, combination index (CalcuSyn); settings: drug combined with mcl-1 ASO
Description: To determine the level of significance in differences found in the evaluation of data, the paired student t-test is applied.
Results are expressed as percent of control (=scramble control) without targeted drug and represent the mean±SD of 3 independent experiments are analyzed. […] Results represent the mean±SD of 3 independent experiments. […] A combination index (CI) less than 1 indicates synergism.

[8] = 24 hours of incubation with drug

Molecule	induction of apoptosis (in words) (HMC-1.1 cells [1]; HMC-1.1)	expression of the Mcl-1 protein after targeted drugs (Mcl-1 protein [2])	expression of the Mcl-1 protein after targeted drugs (Mcl-1 protein [3])	EC50 (HMC-1.2 cells [4])	EC50 (HMC-1.1 cells [1])	cell growth / proliferation (in words) (HMC-1.1 cells [6])	also measured
Cc1ccc(NC(=O)c2ccc(CN3CCN(C)CC3)cc2)cc1Nc1nccc(-c2cccnc2)n1 [Imatinib]	induce apoptosis	no significant effects	down-regulate expression				
mcl-1 siRNA: double-stranded mcl-1 siRNA (AAGAAACGCGGUAAUCGGACU, SEQ ID NO:8, and AGUCCGAUUACCGCGUUUCUU, SEQ ID NO:9) (chain 1 AAGAAACGCGGUAAUCGGACU; chain 2 AGUCCGAUUACCGCGUUUCUU; listed as RNA, chemistry not given here; listed as Homo sapiens)							apoptotic cells (HMC-1.2 cells [4]; HMC-1.2, siRNA 200 nM, 12 hours): increase in apoptotic cells; apoptotic cells (HMC-1.1 cells [1]; HMC-1.1, siRNA 200 nM, 12 hours): increase in apoptotic cells; expression of the Mcl-1 protein (Mcl-1 protein [2]; HMC-1.2, siRNA 200 nM): downregulate expression; expression of the Mcl-1 protein (Mcl-1 protein [3]; HMC-1.1, siRNA 200 nM): downregulate expression
Nc1nc(Cl)nc2c1ncn2[C@H]1C[C@H](O)[C@@H](CO)O1 [2CdA, 2-chlorodeoxyadenosine]	no significant effect			> 1 µg/mL	> 1 µg/mL		IC50 (HMC-1.2 cells [5]; [8]): 0.005 to 0.02 µg/mL; IC50 (HMC-1.1 cells [6]; [8]): 0.1 to 0.3 µg/mL
Cc1cn(-c2cc(NC(=O)c3ccc(C)c(Nc4nccc(-c5cccnc5)n4)c3)cc(C(F)(F)F)c2)cn1 [nilotinib, 4-methyl-3-[[4-(3-pyridinyl)-2-pyrimidinyl]amino]-N-[5-(4-methyl-1H-imidazol-1-yl)-3-(trifluoromethyl)phenyl]benzamide]	induce apoptosis	no significant effects	down-regulate expression	> 10 µM	30 to 80 nM	reduce cell growth	drug interaction with mcl-1 ASO (synergism, combination index less than 1) (HMC-1.1 cells [7]): only synergistic in HMC-1.1 cells; IC50 (HMC-1.2 cells [5]; 24 hours of incubation with drugs): 1000 to 3000 nM; IC50 (HMC-1.1 cells [6]; 24 hours of incubation with drugs or transfection with ASO): 3 to 10 nM
CO[C@@H]1[C@H](N(C)C(=O)c2ccccc2)C[C@H]2O[C@]1(C)n1c3ccccc3c3c4c(c5c6ccccc6n2c5c31)C(=O)NC4 [PKC412, N-[(9S,10R,11R,13R)-2,3,10,11,12,13-hexahydro-10-methoxy-9-methyl-1-oxo-9,13-epoxy-1H,9H-diindolo[1,2,3-gh:3′,2′,1′-lm]pyrrolo[3,4-j][1,7]benzodiazonin-11-yl]-N-methylbenzamide]	induce apoptosis	decreased the expression	down-regulate expression			reduce cell growth	cell growth / proliferation (in words) (HMC-1.2 cells [5]; HMC-1.2, pharmacologically relevant concentrations): counteract cell growth
